# According to article PMC8786951, “Identification of an allatostatin C signaling system in mollusc Aplysia” (Scientific Reports, 2022):
# Values joined by “and” are separate entries in the source; they are usually repeats but may differ in a detail not shown here. Equal values may be shown once. Read-outs that look alike come from different tables or passages of the source. Where a SMILES comes first, the peptide text is derived from it. Bridges are numbered along the chain shown (N, C = ends).
# How the values were obtained:
# [1] = target: T1, AstC-R (Aplysia californica, UniProt A0ABM0JJJ7); test: IP1 accumulation assay, CHO-K1 cells expressing putative receptor AstC-R; type: cell-based; conditions: for EC50: IP1 accumulation, CHO cells co-transfected with AstC-R and Gα16 plasmids, peptide 10^–12 M to 10^–4 M; for Screening: IP1 concentration on AstC-R at 10^–5 M vs 10^–10 M: CHO cells co-transfected with AstC-R and Gα16, 10^–10 M used as control, paired t-test, n = 6 (AstC' n = 5; AstCG-DP, SPTR n = 3); for IP1 response of AstC-R, preliminary experiments: CHO cells transfected with receptor plasmid only, without Gα16
# T1 sequence (A0ABM0JJJ7 1-425): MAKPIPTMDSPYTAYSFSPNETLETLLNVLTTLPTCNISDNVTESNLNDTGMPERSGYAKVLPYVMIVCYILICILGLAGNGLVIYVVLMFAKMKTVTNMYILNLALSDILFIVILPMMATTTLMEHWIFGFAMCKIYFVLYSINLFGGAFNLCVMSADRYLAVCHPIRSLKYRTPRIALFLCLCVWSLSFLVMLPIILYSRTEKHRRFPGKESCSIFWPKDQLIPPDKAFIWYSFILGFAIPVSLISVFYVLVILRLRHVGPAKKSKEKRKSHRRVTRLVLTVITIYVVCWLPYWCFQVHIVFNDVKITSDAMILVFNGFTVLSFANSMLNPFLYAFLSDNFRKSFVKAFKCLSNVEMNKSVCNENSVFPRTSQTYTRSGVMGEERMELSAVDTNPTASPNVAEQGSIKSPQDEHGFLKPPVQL
# Description: Because Gα16 is a promiscuous Gαq protein that will bind to most GPCRs[10],[53], this procedure would ensure an IP1 response when a potential ligand binds to its GPCR.
# Inositol monophosphate 1 (IP1) accumulation assay measures concentration of IP1, that is hydrolyzed from the second messenger, […] (IP3), generated by Gαq pathway when a G-protein coupled receptor (GPCR) expressed in CHO-K1 cells is activated by an appropriate ligand. In order to express the Aplysia putative receptors transiently in CHO-K1, the cDNA was cloned into the mammalian expression vector pcDNA3.1( +). […] Transfection experiments were performed when the cells were grown to 70–90% confluence. In preliminary experiments, for each dish (60-mm diameter), 4 μg of the putative receptor plasmids [in pcDNA3.1( +)] were mixed with 400 μl of Opti-MEM (Gibco, 11058021), followed by the addition of 15 μl of Turbofect (Thermo Fisher Scientific, R0531). […] The CHO cells with the reagents added above were mixed gently, and incubated at room temperature for 15 min. The DNA/Turbofect mixture dropwise was then added to the dish, and the cells were incubated at 37 °C in 5% CO2 overnight. The next day, the cells were trypsinized and reseeded in opaque white 96-well half-area (Corning, 3688) or 384-well tissue culture-treated plates (Corning, 3570) at a density of 20,000 cells/well in F-12K and 10% FBS and incubated at 37 °C in 5% CO2 overnight. On the third day, the activation of the putative receptor was detected by monitoring IP1 accumulation using IP1 detection kit (Cisbio, 62IPAPEB) in Tecan Spark. Except for using 0.5 × reagent, all other procedures were performed in accordance with the IP1 detection kit manufacturer’s instructions. Peptides are synthesized by Sangon Biotech, Guoping Pharmaceutical or ChinaPeptides (Supplementary Fig. 4), and are aliquoted in 50 nmol EP tubes, stored at −20 °C until use.
# [2] = system: Class-A_GPCR1; test: IP1 accumulation assay, CHO-K1 cells expressing putative receptor Class-A_GPCR1 (control); type: cell-based, Aplysia californica; conditions: CHO cells transfected with receptor plasmid only, without Gα16
# Description: We cloned AstC-R and Class-A_GPCR1 into pcDNA3.1 plasmids, and expressed them in CHO cells. We then used the IP1 accumulation assay that detects IP1 generated in the Gαq pathway (see Methods) to determine whether our predicted Aplysia peptides (i.e., AstC or AstCG-DP) and other related peptides which we synthesized (see Fig. 7G) could activate the receptors. In preliminary experiments, we only transfected plasmids for a putative receptor in CHO cells. […] Thus, for all the experiments shown in Fig. 7, we co-transfected plasmids for the putative receptor and Gα16 plasmids in CHO cells. Because Gα16 is a promiscuous Gαq protein that will bind to most GPCRs[10],[53], this procedure would ensure an IP1 response when a potential ligand binds to its GPCR.
# Inositol monophosphate 1 (IP1) accumulation assay measures concentration of IP1, that is hydrolyzed from the second messenger, […] (IP3), generated by Gαq pathway when a G-protein coupled receptor (GPCR) expressed in CHO-K1 cells is activated by an appropriate ligand. In order to express the Aplysia putative receptors transiently in CHO-K1, the cDNA was cloned into the mammalian expression vector pcDNA3.1( +). […] On the third day, the activation of the putative receptor was detected by monitoring IP1 accumulation using IP1 detection kit (Cisbio, 62IPAPEB) in Tecan Spark. […]
# [3] = target: Platynereis receptor; conditions: annelid Platynereis dumerilii allatostatin C on its putative receptor; cited from earlier work
# Description: Growing databases of the Aplysia genome and transcriptome are becoming available, but relatively few studies have taken advantage of this information (see[53],[54]). […] Previous bioinformatic studies in several molluscs predicted the presence of an allatostatin C precursor (Fig. 3, e.g.,[57]) and of AstC with the ...
# [4] = average EC50, n = 3, read-out: [EC50] on AstC-R
# [5] = average log[EC50], n = 3, read-out: log[EC50] on AstC-R (converted)
Compound,"EC50 [1, 4] [µM]",Screening: IP1 concentration on AstC-R at 10^–5 M vs 10^–10 M [1],"EC50 [1, 5] [µM]",further results
CC[C@H](C)[C@H](NC(=O)[C@H](Cc1c[nH]cn1)NC(=O)[C@@H](N)CO)C(=O)N[C@@H](CCCNC(=N)N)C(=O)N[C@H]1CSSC[C@@H](C(=O)N[C@@H](Cc2ccc(O)cc2)C(=O)O)NC(=O)[C@H](C)NC(=O)[C@H]([C@@H](C)CC)NC(=O)[C@H](C(C)C)NC(=O)[C@H](CC(N)=O)NC(=O)[C@H](C(C)C)NC(=O)[C@H](CC(C)C)NC1=O [AstC-C] (H-SHIRCLVNVIACY-OH; disulfide 5-12),0.111,,,
CSCC[C@H](NC(=O)[C@H](CO)NC(=O)[C@H](CO)NC(=O)[C@H](Cc1ccc(O)cc1)NC(=O)[C@H](Cc1c[nH]cn1)NC(=O)[C@@H](N)CO)C(=O)N[C@H]1CSSC[C@@H](C(=O)N[C@@H](Cc2ccc(O)cc2)C(=O)O)NC(=O)[C@H](C)NC(=O)[C@H](C(C)C)NC(=O)[C@H](C(C)C)NC(=O)[C@H](CC(N)=O)NC(=O)[C@H](Cc2ccccc2)NC(=O)[C@H](CCSC)NC1=O [AstC] (H-SHYSSMCMFNVVACY-OH; disulfide 7-14; N-terminus assumed),0.0078,significantly increased IP1 concentration,0.00631,"IP1 response of AstC-R, preliminary experiments [1]: none of the receptors responded; IP1 response of Class-A_GPCR1, preliminary experiments [2]: none of the receptors responded"
CSCC[C@H](NC(=O)[C@H](CO)NC(=O)[C@H](CC(N)=O)NC(=O)[C@H](Cc1ccc(O)cc1)NC(=O)[C@H](Cc1c[nH]cn1)NC(=O)[C@@H](N)CO)C(=O)N[C@H]1CSSC[C@@H](C(=O)N[C@@H](Cc2ccc(O)cc2)C(=O)O)NC(=O)[C@H](C)NC(=O)[C@H](C(C)C)NC(=O)[C@H](C(C)C)NC(=O)[C@H](CC(N)=O)NC(=O)[C@H](Cc2ccccc2)NC(=O)[C@H](CCSC)NC1=O [AstC-T] (H-SHYNSMCMFNVVACY-OH; disulfide 7-14),0.0177,,,
CSCC[C@H](NC(=O)[C@H](CO)NC(=O)[C@H](CO)NC(=O)[C@H](Cc1ccc(O)cc1)NC(=O)[C@@H](N)[C@@H](C)O)C(=O)N[C@H]1CSSC[C@@H](C(=O)N[C@@H](Cc2ccc(O)cc2)C(=O)O)NC(=O)[C@H](C)NC(=O)[C@H](C(C)C)NC(=O)[C@H](C(C)C)NC(=O)[C@H](CC(N)=O)NC(=O)[C@H](Cc2ccccc2)NC(=O)[C@H](CCSC)NC1=O [AstC-D] (H-TYSSMCMFNVVACY-OH; disulfide 6-13),0.0189,,0.0158,
"AVIPVSSPEPMEEASALQLLPGKI-NH2 [AstCG-DP, AstC gene-derived peptide predicted from the Aplysia AstC precursor, C-terminally amidated]",,did not activate AstC-R significantly,,"IP1 response of AstC-R, preliminary experiments [1]: none of the receptors responded; IP1 response of Class-A_GPCR1, preliminary experiments [2]: none of the receptors responded"
CC[C@H](C)[C@@H]1NC(=O)[C@H](CC(C)C)NC(=O)[C@H](CC(N)=O)NC(=O)[C@H](C(C)C)NC(=O)[C@H](CC(C)C)NC(=O)[C@@H](NC(=O)[C@H](CCSC)NC(=O)[C@@H](NC(=O)[C@H](Cc2c[nH]cn2)NC(=O)[C@@H](N)CO)C(C)C)CSSC[C@@H](C(=O)N[C@@H](Cc2ccccc2)C(=O)O)NC(=O)[C@H](CO)NC1=O [AstC-L] (H-SHVMCLVNLISCF-OH; disulfide 5-12),0.111,,0.0631,
"MRYMG1CMKKQYNNF1PFPCLRS-NH2 (disulfide) [SPTR, another Aplysia peptide also with a disulfide bridge, reference compound]",,did not activate AstC-R significantly,,
pQPVQCLVNIVSCWamide (disulfide) [allatostatin C],,,,EC50 [3]: 1 µM and 1.2 µM
